Laboratory results from paper PMC10890666, “Targeted Affinity Purification and Mechanism of Action of Angiotensin-Converting Enzyme (ACE) Inhibitory Peptides from Sea Cucumber Gonads” (Marine Drugs, 2024).
Like-named read-outs stand apart in the source and are kept apart here.

Key:
[1] = biological target: angiotensin-converting enzyme (ACE); details: cited from earlier work; for IC50: read-out: IC50 (ACE inhibition)
From the text: The immobilization of ACE using various immobilization media is a promising affinity purification method to obtain shorter peptides from diverse sources. […] Feng et al. used a novel affinity medium Fe3O4@ZIF-90 and combined this method with reversed-phase high-performance liquid chromatography (RP-HPLC) and MALDI-TOF mass spectrometry to purify ... || Collectively, low-molecular-weight fractions isolated from SCGHs using the ultrafiltration method allowed us to obtain small peptides with potent ACE inhibitory activity. ACE inhibitory molecules are typically characterized by their small and short-chain peptide structures. In this study, a combination of ultrafiltration separation and SCGH effectively eliminated substances above 3 kDa. We further isolated the active components by utilizing an ACE enzyme affinity column, which facilitated the removal of other nonspecifically bound substances and yielded the target peptides. […] For instance, the experimentally purified short peptide DDQYHIF features Phe at the C-terminus, while HDWWKER has basic amino acids Arg and His at the C- and N-termini, respectively. Sun et al. reported that peptides with Arg at the C-termi ...

[2] = biological target: T1, angiotensin-I-converting enzyme (ACE) (UniProt P12822 34-1260); assay: cell-based or functional assay
T1 sequence (looked up): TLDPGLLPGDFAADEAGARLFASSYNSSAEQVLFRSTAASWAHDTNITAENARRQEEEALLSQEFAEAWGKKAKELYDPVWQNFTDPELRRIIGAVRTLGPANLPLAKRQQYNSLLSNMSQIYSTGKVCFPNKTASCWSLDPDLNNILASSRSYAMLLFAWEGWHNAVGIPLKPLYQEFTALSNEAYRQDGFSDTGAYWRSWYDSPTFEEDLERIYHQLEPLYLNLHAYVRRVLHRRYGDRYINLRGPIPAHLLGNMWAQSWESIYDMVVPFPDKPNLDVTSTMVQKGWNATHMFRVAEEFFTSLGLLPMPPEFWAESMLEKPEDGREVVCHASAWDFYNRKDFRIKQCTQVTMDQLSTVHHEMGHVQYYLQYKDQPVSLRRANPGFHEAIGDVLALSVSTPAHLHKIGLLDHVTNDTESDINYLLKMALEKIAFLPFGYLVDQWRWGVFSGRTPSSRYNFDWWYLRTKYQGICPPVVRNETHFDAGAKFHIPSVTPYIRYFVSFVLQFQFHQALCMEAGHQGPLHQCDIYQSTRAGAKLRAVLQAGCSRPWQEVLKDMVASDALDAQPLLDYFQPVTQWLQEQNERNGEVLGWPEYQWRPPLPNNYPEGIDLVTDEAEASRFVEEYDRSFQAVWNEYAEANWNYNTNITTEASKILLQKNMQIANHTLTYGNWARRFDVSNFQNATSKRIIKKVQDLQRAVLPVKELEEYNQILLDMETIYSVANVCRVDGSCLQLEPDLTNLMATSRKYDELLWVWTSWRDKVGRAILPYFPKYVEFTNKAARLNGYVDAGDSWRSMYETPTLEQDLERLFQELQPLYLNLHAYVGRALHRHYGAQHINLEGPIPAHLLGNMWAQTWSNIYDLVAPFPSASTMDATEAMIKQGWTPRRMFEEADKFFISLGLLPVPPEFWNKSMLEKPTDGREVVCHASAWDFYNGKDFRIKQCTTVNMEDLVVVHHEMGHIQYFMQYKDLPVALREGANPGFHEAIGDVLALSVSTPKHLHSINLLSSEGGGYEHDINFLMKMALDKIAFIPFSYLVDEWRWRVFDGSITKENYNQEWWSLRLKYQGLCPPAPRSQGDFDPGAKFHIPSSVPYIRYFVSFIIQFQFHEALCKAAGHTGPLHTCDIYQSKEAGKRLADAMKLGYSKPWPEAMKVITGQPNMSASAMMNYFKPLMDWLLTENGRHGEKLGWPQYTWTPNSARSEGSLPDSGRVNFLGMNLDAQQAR

[3] = from Ulva intestinalis, ref [32]

For EIYR, the IC50 ([1]; from sea cucumber gonads, ref Zhong et al. (2018)) is given as 348 µM.

For KNFL, the “ACE inhibition (in words)” value ([1]; from Undaria pinnatifida, ref [8]) is listed as “ACE inhibitory peptide”.

In the case of “TLRFALHGME [novel peptide from Takifugu flavidus hydrolysate]”, the IC50 ([1]; from Takifugu flavidus hydrolysate, ref [17]) is listed as 93.5 µM.

For MELVLR, the IC50 [1, 3] is given as 237 µM.

For LLYQEPVLGPVR, the “ACE inhibition (in words)” value ([1]; from casein hydrolysate, ref [7]) is given as “potent ACE inhibitory peptide”.

For GMKCA, the “ACE inhibition (in words)” value ([1]; ref [9]) is listed as “ACE inhibitory peptide” and the IC50 ([1]; ref [9]) is listed as 45.7 µM.

In the case of FGMPLDR, the IC50 [1, 3] is given as 219 µM.

With DDQYHIF the “IC50 of ACE inhibition (HHL substrate, HPLC)” value (shortened to “IC50 of ACE inhibition”) [2] was 334 µM.

In the case of HDWWKER, the “IC50 of ACE inhibition” value [2] is reported as 584 µM.

For THDWWKER, the “IC50 of ACE inhibition” value [2] was 1290 µM.
